Like-named read-outs stand apart in the source and are kept apart here. Numbered stars: 1 amine (or outer) side, 2 acyl side, 3 side chain; on linkers, the order of the positions; unused ones are H or OH. Bridge positions count the residues as written; N and C are the ends. Square brackets hold non-standard residues; d marks the D form. Peptide text beside a SMILES is read from it. * marks the point of attachment. DOTA = O=C(O)CN1CCN(CC(=O)O)CCN(CC(=O)*)CCN(CC(=O)O)CC1; Phe(3-CF3) = N[C@@H](Cc1cccc(C(F)(F)F)c1)C(=O)O; Phe(4-Cl) = N[C@@H](Cc1ccc(Cl)cc1)C(=O)O; Phe(4-F) = N[C@@H](Cc1ccc(F)cc1)C(=O)O; Arg(Me) = CNC(=N)NCCC[C@H](N)C(=O)O; Ethylenediamine = C(CN[*:2])N[*:1]; X1 = O=C(CC1CCN([*:1])CC1)[*:2]; Lys(Me) = CNCCCC[C@H](N)C(=O)O; Tle = CC(C)(C)[C@H](N)C(=O)O; X15 = O=C1NC(=O)C(CC(=O)*)N1; 4Amb = NCc1ccc(C(=O)O)cc1; AEEA = NCCOCCOCC(=O)O; Aib = CC(C)(N)C(=O)O
Assays:
[1] = target: T1, PSMA-expressing C4-2 cells (Homo sapiens, UniProt Q04609); assay: FACS binding assay (competition with 50 nM PSM-0183); conditions: for IC50: read-out: pIC50 [C4-2] CAT (converted)
T1 construct: PSMA-expressing C4-2 cells (ATCC, Cat. No. CRL-3314) were cultured in RPMI-1640; host or cells: C4-2 cells
T1 sequence (Q04609 whole entry): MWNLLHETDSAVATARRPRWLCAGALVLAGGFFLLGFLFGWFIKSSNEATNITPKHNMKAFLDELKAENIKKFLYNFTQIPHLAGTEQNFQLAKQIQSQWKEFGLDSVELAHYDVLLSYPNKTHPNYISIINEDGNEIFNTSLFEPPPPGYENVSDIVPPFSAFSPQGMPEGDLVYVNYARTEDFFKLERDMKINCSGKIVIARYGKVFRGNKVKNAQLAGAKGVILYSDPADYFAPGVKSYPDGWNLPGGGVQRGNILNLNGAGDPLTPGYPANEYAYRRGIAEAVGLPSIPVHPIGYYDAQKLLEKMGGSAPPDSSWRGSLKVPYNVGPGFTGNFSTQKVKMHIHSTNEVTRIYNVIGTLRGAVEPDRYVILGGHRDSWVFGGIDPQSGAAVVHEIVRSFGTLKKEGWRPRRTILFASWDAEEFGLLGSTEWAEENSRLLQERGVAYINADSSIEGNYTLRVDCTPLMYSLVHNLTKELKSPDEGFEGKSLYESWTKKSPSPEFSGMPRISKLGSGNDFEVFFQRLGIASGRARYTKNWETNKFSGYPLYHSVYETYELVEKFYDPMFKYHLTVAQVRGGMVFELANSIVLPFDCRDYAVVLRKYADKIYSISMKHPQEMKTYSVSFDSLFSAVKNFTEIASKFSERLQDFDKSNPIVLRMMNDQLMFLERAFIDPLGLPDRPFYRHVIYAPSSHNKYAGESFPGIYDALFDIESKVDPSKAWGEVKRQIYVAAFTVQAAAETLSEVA
Summary of the method: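 C4-2 cells were incubated 1 h at 4 °C with 50 nM AF488-labelled peptide PSM-0183 plus increasing test compound concentrations, then washed twice in ice-cold buffer. Median fluorescence in the AF488 channel was read by flow cytometry. IC50/pIC50 was derived by 4PL fitting of MFI versus concentration.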

[2] = target: T2, Fc-fusion protein of human PSMA (hPSMA-Fc) (Homo sapiens, UniProt Q04609); assay: Surface plasmon resonance assay (Biacore T200, single cycle kinetic); assay type: binding; conditions: hPSMA-Fc, 25° C.; for Kd: read-out: pKD CAT (converted)
T2 construct: purchased Acro Biosystems PSA-H5264
T2 sequence (Q04609 44-750 limits assumed): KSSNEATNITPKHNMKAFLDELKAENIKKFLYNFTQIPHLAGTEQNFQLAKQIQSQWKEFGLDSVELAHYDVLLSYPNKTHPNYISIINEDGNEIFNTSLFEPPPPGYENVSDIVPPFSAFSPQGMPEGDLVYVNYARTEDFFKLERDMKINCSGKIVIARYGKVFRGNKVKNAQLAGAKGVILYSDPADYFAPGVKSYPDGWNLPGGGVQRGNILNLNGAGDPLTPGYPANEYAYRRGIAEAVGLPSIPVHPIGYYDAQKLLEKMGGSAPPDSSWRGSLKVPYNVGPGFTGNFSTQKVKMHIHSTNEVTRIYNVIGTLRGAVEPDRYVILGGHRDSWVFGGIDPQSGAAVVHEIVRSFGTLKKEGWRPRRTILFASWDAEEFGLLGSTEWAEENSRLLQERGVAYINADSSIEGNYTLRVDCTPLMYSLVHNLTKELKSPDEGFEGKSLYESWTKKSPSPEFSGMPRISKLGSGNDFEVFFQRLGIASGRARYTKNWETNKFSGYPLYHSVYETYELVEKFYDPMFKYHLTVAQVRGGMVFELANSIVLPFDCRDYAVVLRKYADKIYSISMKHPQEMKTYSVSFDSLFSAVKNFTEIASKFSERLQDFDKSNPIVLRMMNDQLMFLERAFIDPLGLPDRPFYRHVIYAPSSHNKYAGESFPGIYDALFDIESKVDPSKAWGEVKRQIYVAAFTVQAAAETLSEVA
Summary of the method: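 hPSMA-Fc was captured (~1000 RU) on an Fc-binding-peptide CM5 chip, and compounds were run in single cycle kinetic mode at 25° C in HBST with 0.1% DMSO. Double-blank-corrected sensorgrams were fitted to a 1:1 Langmuir model to give KD, reported as pKD.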

[3] = pIC50 category of FACS binding, C4-2 cells
[4] = pKD category for PSMA SPR activity assay
[5] = FACS binding, PSMA-expressing C4-2 cells, pIC50 category

IC50 [1, 3] [nM] | Kd [2, 4] [nM] | Molecule | further results
< 200 | < 12.6 | CC(=O)N[C@H](C(=O)NC(C)(C)C(=O)N[C@@H](Cc1ccc(Cl)cc1)C(=O)N[C@H]1CSSC[C@@H](C(=O)N[C@H](C(=O)NCCN)C(C)(C)C)NC(=O)[C@H](CC(N)=O)NC(=O)C(C)(C)NC(=O)[C@H](CCCNC(=N)N)NC(=O)[C@H](CCCCN)NC1=O)[C@@H](C)O [PSM-0393, Ac-Thr-Aib-Pcf-[Cys-Lys-Arg-Aib-Asn-Cys]-Tle-en] (Ac-T[Aib][Phe(4-Cl)]CKR[Aib]NC[Tle]-Ethylenediamine; disulfide 4-9) | –
< 200 | < 12.6 | C[C@@H](O)[C@H](NC(=O)[C@@H](NC(=O)[C@@H]1CSSC[C@H](NC(=O)[C@H](Cc2ccccc2)NC(=O)C(C)(C)NC(=O)[C@@H](NC(=O)COCCOCCNC(=O)CN2CCN(CC(=O)O)CCN(CC(=O)O)CCN(CC(=O)O)CC2)[C@@H](C)O)C(=O)N[C@@H](CCCCN)C(=O)N[C@@H](CCCNC(=N)N)C(=O)NC(C)(C)C(=O)N[C@@H](CC(N)=O)C(=O)N1)C(C)(C)C)C(N)=O [PSM-0505, DOTA-020c-Thr-Aib-Phe-[Cys-Lys-Arg-Aib-Asn-Cys]-Tle-Thr-NH2] ({DOTA-AEEA}-T[Aib]FCKR[Aib]NC[Tle]T-NH2; disulfide 4-9) | –

Continued, molecule first:

Molecule | IC50 [1, 3] [nM] | Kd [2, 4] [nM] | further results
CNCCCC[C@@H]1NC(=O)[C@@H](NC(=O)[C@H](Cc2ccc(F)cc2)NC(=O)C(C)(C)NC(=O)[C@@H](NC(=O)CC2CCN(C(=O)CN3CCN(CC(=O)O)CCN(CC(=O)O)CCN(CC(=O)O)CC3)CC2)[C@@H](C)O)CSSC[C@@H](C(=O)N[C@H](C(N)=O)C(C)(C)C)NC(=O)[C@H](CC(N)=O)NC(=O)C(C)(C)NC(=O)[C@H](CCCNC(=N)NC)NC1=O [PSM-0395, DOTA-Cmp-Thr-Aib-Pff-[Cys-Lys(Me)-Arg(Me)-Aib-Asn-Cys]-Tle-NH2] ({DOTA}-[X1]T[Aib][Phe(4-F)]C[Lys(Me)][Arg(Me)][Aib]NC[Tle]-NH2; disulfide 5-10) | < 200 | < 12.6 | –
C[C@@H](O)[C@H](NC(=O)[C@@H](NC(=O)[C@@H]1CSSC[C@H](NC(=O)[C@H](Cc2ccccc2)NC(=O)C(C)(C)NC(=O)CC2NC(=O)NC2=O)C(=O)N[C@@H](CCCCN)C(=O)N[C@@H](CCCNC(=N)N)C(=O)NC(C)(C)C(=O)N[C@@H](CC(N)=O)C(=O)N1)C(C)(C)C)C(N)=O (stereo partly drawn) [PSM-0518, HYDAc-Aib-Phe-[Cys-Lys-Arg-Aib-Asn-Cys]-Tle-Thr-NH2] (X15-[Aib]FCKR[Aib]NC[Tle]T-NH2; disulfide 3-8) | < 200 | < 12.6 | –
Ac-Thr-Aib-Phe-[Cys-Lys-Arg-Aib-Asn-Cys]-Tle-Thr-Cmp-lys (LuDOTA)-NH2 [PSM-0347] | – | – | pIC50 [C4-2] CAT [1, 5]: A (pIC50 values >6.7); pKD CAT ([2]; PSMA SPR assay, pKD category): A (pKD values >7.9)
CC(=O)N[C@H](C(=O)NC(C)(C)C(=O)N[C@@H](Cc1cccc(C(F)(F)F)c1)C(=O)N[C@H]1CSSC[C@@H](C(=O)N[C@H](C(=O)N[C@H](C(N)=O)[C@@H](C)O)C(C)(C)C)NC(=O)[C@H](CC(N)=O)NC(=O)C(C)(C)NC(=O)[C@H](CCCNC(=N)N)NC(=O)[C@H](CCCCN)NC1=O)[C@@H](C)O [PSM-0264, Ac-Thr-Aib-Mtf-[Cys-Lys-Arg-Aib-Asn-Cys]-Tle-Thr-NH2] (Ac-T[Aib][Phe(3-CF3)]CKR[Aib]NC[Tle]T-NH2; disulfide 4-9) | – | – | IC50 ([1]; FACS binding, C4-2 cells, competition with 50 nM PSM-0183, category): < 200 nM; Kd ([2]; SPR, single cycle kinetic, category): < 12.6 nM
CC(=O)N[C@H](C(=O)NC(C)(C)C(=O)N[C@@H](Cc1ccccc1)C(=O)N[C@H]1CSSC[C@@H](C(=O)N[C@H](C(=O)N[C@H](C(=O)NCc2ccc(C(=O)N[C@H](CCCCNC(=O)CN3CCN(CC(=O)O)CCN(CC(=O)O)CCN(CC(=O)O)CC3)C(N)=O)cc2)[C@@H](C)O)C(C)(C)C)NC(=O)[C@H](CC(N)=O)NC(=O)C(C)(C)NC(=O)[C@H](CCCNC(=N)N)NC(=O)[C@H](CCCCN)NC1=O)[C@@H](C)O [PSM-0522, Ac-Thr-Aib-Phe-[Cys-Lys-Arg-Aib-Asn-Cys]-Tle-Thr-Pamb-lys(DOTA)-NH2] (Ac-T[Aib]FCKR[Aib]NC[Tle]T[4Amb][dK](DOTA)-NH2; disulfide 4-9) | < 200 | < 12.6 | –
C[C@@H](O)[C@H](NC(=O)[C@@H](NC(=O)[C@@H]1CSSC[C@H](NC(=O)[C@H](Cc2ccc(Cl)cc2)NC(=O)[C@@H](CCC(=O)O)NC(=O)[C@@H](NC(=O)CC2CCN(C(=O)CN3CCN(CC(=O)O)CCN(CC(=O)O)CCN(CC(=O)O)CC3)CC2)[C@@H](C)O)C(=O)N[C@@H](CCCCN)C(=O)N[C@@H](CCCNC(=N)N)C(=O)NC(C)(C)C(=O)N[C@@H](CC(N)=O)C(=O)N1)C(C)(C)C)C(N)=O [PSM-0343, DOTA-Cmp-Thr-glu-Pcf-[Cys-Lys-Arg-Aib-Asn-Cys]-Tle-Thr-NH2] ({DOTA}-[X1]T[dE][Phe(4-Cl)]CKR[Aib]NC[Tle]T-NH2; disulfide 5-10) | – | – | IC50 [1, 5]: > 3160 nM; Kd ([2]; PSMA SPR assay, pKD category): > 501 nM
